# Results taken from patent publication US8871251B2, “Liposome and method for producing the same” (Can Heal BioMediTech Corp., priority 2008, dated 2014).
# What was measured:
# Experiment in all cases: MTT assay, curcumin concentration killing 50% of cells
# Format in all cases: cell-based
# HeLa = conditions: human cervical cancer, mean±SD (n=6), read-out: curcumin concentration required for killing 50% of the cells
# Description: (§1) In this experiment, whether the liposome has the capability of carrying drugs is observed by MTT assay. First, curcumin was added into cells at different concentrations, to obtain the curcumin concentration required for killing 50% of the cells. Next, the liposome with curcumin at different concentrations (curcumin-liposome) was sent into cells of the same type respectively, to obtain the curcumin concentration required for killing 50% of the cells. In Table 1, all the concentrations are expressed as mean±standard deviation (SD) (n=6).
# JC = conditions: mouse breast adenocarcinoma, mean±SD (n=6), read-out: curcumin concentration required for killing 50% of the cells
# Description: as §1
# HepG2 = conditions: HepG2, human hepatocellular carcinoma; mean±SD (n=6); read-out: curcumin concentration required for killing 50% of the cells
# Description: as §1
# LL-2 = conditions: LL-2, mouse lung carcinoma; mean±SD (n=6); read-out: curcumin concentration required for killing 50% of the cells
# Description: as §1
# CT-26 = conditions: CT26; CT-26, mouse colorectal adenocarcinoma; mean±SD (n=6); read-out: curcumin concentration required for killing 50% of the cells
# Description: as §1
# A549 = conditions: A549, human lung carcinoma; mean±SD (n=6); read-out: curcumin concentration required for killing 50% of the cells
# Description: as §1
# B16/F10 = conditions: B16/F10, mouse melanoma; mean±SD (n=6); read-out: curcumin concentration required for killing 50% of the cells
# Description: as §1
# HT-29 = conditions: HT-29, human colorectal adenocarcinoma; mean±SD (n=6); read-out: curcumin concentration required for killing 50% of the cells
# Description: as §1
smiles,measurement,setting,value
"COc1cc(/C=C/C(=O)CC(=O)/C=C/c2ccc(O)c(OC)c2)ccc1O [Curcumin, curcumin]",IC50,HeLa,17.7 ± 6.95 µM
same,IC50,JC,11 ± 1.47 µM
same,IC50,HepG2,12.2 ± 1.11 µM
same,IC50,LL-2,10.8 ± 2.33 µM
same,IC50,CT-26,7.92 ± 0.77 µM
same,IC50,A549,30 ± 9.45 µM
same,IC50,B16/F10,8.16 ± 1.01 µM
same,IC50,HT-29,12.9 ± 1.18 µM
